Reference: article PMC6271218, “Pharmacokinetics, Tissue Distribution and Excretion of Verticinone from F. hupehensis in Rats” (Molecules, 2014)
Like-named read-outs stand apart in the source and are kept apart here.

Assays:
[1] = Tissue distribution study after oral administration; type: in vivo, rats; conditions: for rank order of AUC values for individual tissues: i.g. 2 mg/kg
Description: A single 2 mg/kg oral dose of verticinone was administrated to thirty rats (15 male and 15 female). Rats were sacrificed and tissues (heart, liver, spleen, lung, kidney, brain, stomach, intestine, skin, muscle, fat and gonads) were promptly removed at 0.25, 0.58 and 6 h (n = 10, with 5 male and 5 female) after dosing and washed with saline. Each tissue sample (0.2 g) was homogenized in 5 volumes (v/w) of distilled water. Tissue homogenates were stored at −20 °C until analysis. Verticinone was extracted from tissue homogenate based on the method described for plasma with slight modifications. The evaporated residue was reconstituted in 200 μL methanol, vortexed, followed by centrifugation at 15,000 rpm twice. An aliquot of 10 μL was injected into the LC-MS system for analysis.
(§1) The quantification of verticinone was performed by a LC-MS method based on the previously reported method with slight modifications. The liquid chromatography system consisted of a model 2010 chromatograph (Shimadzu, Kyoto, Japan) equipped with a Shim-Pack VP-ODS C18 column (150 mm × 2.0 mm, 5 μm). A Shimadzu 2010 mass spectrometer (Q-array-Octapole-Quadrupole mass analyzer) equipped with an electrospray ionization interface was used for MS detection. The mobile phase consisted of (A) distilled water and (B) methanol, and the flow rate was 0.2 mL/min. Chromatography separation was achieved using a gradient elution program, as follows: 0.03→6.0 min, B% 15→85; 6.0→7.0 min, B% 85→85; 7.0→8.0 min, B% 85→15; 8.0–12.0 min, B% 15→15. The column and autosampler tray temperature were kept constant at 35 °C and 20 °C, respectively. For the determination of verticinone, the positive mode was selected, along with the conditions as follows.
CDL voltage […], probe voltage 4.5 kV, CDL temperature 250 °C, block temperature 200 °C, gas flow 1.5 L/min. Hupehenine was used as the internal standard (IS). Both verticinone and IS were detected using selected ion monitoring (SIM) at m/z 430.25 for verticinone and m/z 416.30 for hupehenine (IS), with a dwell time of 200 ms. […]

[2] = Multiple-dose (successive i.g.) plasma pharmacokinetics; type: in vivo, SD rats; conditions: for Cmax / AUC(0-inf) / AUC(0-t) / Tmax / MRT last / Vd/F / half-life: SD, rat, plasma, po; for MRT last: read-out: MRT0–t; for Vd/F: read-out: Vz/F; for half-life: read-out: t1/2z (converted)
Description: (§2) Pharmacokinetic studies of verticinone after intravenous (i.v.) and intragastrical (i.g.) administration to rats were designed to determine pharmacokinetic parameters and absolute bioavailability. For i.g administration, verticinone was suspended in 0.5% carboxymethyl cellulose sodium (CMC-Na) to final concentrations of 0.2, 0.4 and 0.8 mg/mL. Verticinone was dissolved in 20% ethanol/80% water to final concentration of 0.08 mg/mL for i.v. administration. For the i.v. group, five male and five female rats received a single dose of 0.4 mg/kg. Blood samples (0.25 mL) were obtained at 0, 4, 15, 30, 45, 60, 120, 240, 360, 480, 600 and 720 min after injection. For the single- i.g. group, fifteen male and fifteen female rats were divided into three groups, and each group received a single oral dose of 1, 2 and 4 mg/kg of verticinone, respectively. In addition, another five male and five female rats received multiple oral doses of 4 mg/kg/day, given as 2 mg/kg doses twice a day (one dose in the morning and the second dose 12 h later) for 7 days, then a single oral dose of 2 mg/kg on the eighth day. Blood samples (0.25 mL) were obtained at 0, 5, 15, 30, 45, 60, 90, 120, 240, 360, 480 and 720 min for male rats and at 0, 5, 10, 20, 30, 45, 60, 120, 240, 360, 480 and 720 min for female rats after oral administration (the eighth day for multiple-dose group). Blood samples were then centrifuged at 4000 rpm for 10 min, and the plasma was collected. All plasma samples were frozen and stored at −20 °C until analysis. Verticinone was isolated from plasma by liquid-liquid extraction according to our previously reported procedure.
as §1
(§3) CDL voltage […], probe voltage 4.5 kV, CDL temperature 250 °C, block temperature 200 °C, gas flow 1.5 L/min. Hupehenine was used as the internal standard (IS). Both verticinone and IS were detected using selected ion monitoring (SIM) at m/z 430.25 for verticinone and m/z 416.30 for hupehenine (IS), with a dwell time of 200 ms. Blank plasma, tissue homogenate, urine, feces homogenate and bile were used to prepare the corresponding calibration curves to avoid different matrix effects.
(§4) The pharmacokinetic parameters were calculated by the DAS 2.0 software (Chinese Pharmacological Association, Beijing, China) using a standard non-compartmental method. The Cmax and Tmax were determined from the observed data. The elimination rate constant (ke) was calculated by log-linear regression of verticinone concentrations during the terminal elimination phase and the half-life (t1/2) was calculated as 0.693/ke. The AUC0–t was calculated by the linear trapezoidal method. The AUC0–∞ was calculated as the sum of AUC0–t and the extrapolated part determined by Clast/ke. The total clearance (CL) was calculated as dose/AUC0–∞. The absolute bioavailability (F) was calculated by the following equation: F = [(AUCi.g./AUCi.v.) × (Dosei.v./Dosei.g.)] × 100%. The results were expressed as mean ± SD. Statistical analyses were performed using an unpaired Student’s t-test.

[3] = Plasma pharmacokinetics after i.v. administration; type: in vivo, SD rats; conditions: for AUC(0-inf) / AUC(0-t) / MRT last: SD, rat, plasma, iv; for AUC(0-inf) / AUC(0-t) / MRT last / Vz/F: i.v. 0.4 mg/kg; for MRT last: read-out: MRT0–t
Description: as §2, §1, §3, §4

[4] = successive i.g. 2 mg/kg, female rats
[5] = successive i.g. 2 mg/kg, male rats

C[C@H]1CC[C@@H]2N(C1)C[C@H]1[C@@H]3C[C@H]4[C@@H](CC(=O)[C@H]5C[C@@H](O)CC[C@@]54C)[C@@H]3CC[C@@H]1[C@]2(C)O [verticinone, Verticinone]
rank order of AUC values for individual tissues ([1]; female rats): intestine > stomach > liver > kidney > spleen > lung > gonad > heart > muscle > skin > fat > brain
rank order of AUC values for individual tissues ([1]; male rats): intestine > stomach > liver > kidney > spleen > lung > heart > gonad > muscle > skin > fat > brain
concentration found in the brain ([1]; oral 2 mg/kg, rats, 15 min, 35 min and 6 h): very little was found in the brain
Cmax ([2]; successive i.g. 2 mg/kg (twice a day for 7 days, then single dose on eighth day), female rats): 19.9 ± 14 ng/mL
AUC(0-inf) [2, 4]: 43.4 ± 12 ng·h/mL
AUC(0-t) [2, 4]: 36.1 ± 15.2 ng·h/mL
Tmax [2, 4]: 0.38 ± 0.22 h
MRT last [2, 4]: 2.24 ± 0.28 h
Vd/F [2, 4]: 485 ± 499 L/kg
half-life [2, 4]: 5.94 ± 4.84 h
AUC(0-inf) [2, 5]: 455 ± 125 ng·h/mL
AUC(0-t) [2, 5]: 439 ± 126 ng·h/mL
Cmax [2, 5]: 119 ± 26.8 ng/mL
Tmax [2, 5]: 0.8 ± 0.21 h
MRT last [2, 5]: 2.98 ± 0.3 h
Vd/F [2, 5]: 13.8 ± 4.07 L/kg
half-life [2, 5]: 2.08 ± 0.51 h
AUC, fold higher after successive i.g. than single i.g. ([2]; female rats, 2 mg/kg): approximately 2 fold
CL, fold lower after successive i.g. than single i.g. ([2]; female rats, 2 mg/kg): 2 fold
Cmax, fold higher after successive i.g. than single i.g. ([2]; female rats, 2 mg/kg): approximately 2 fold
AUC(0-inf) ([3]; female rats): 98.9 ± 35.8 ng·h/mL
AUC(0-t) ([3]; female rats): 65.6 ± 7.03 ng·h/mL
MRT last ([3]; female rats): 2.04 ± 0.34 h
AUC(0-inf) ([3]; male rats): 168 ± 23 ng·h/mL
AUC(0-t) ([3]; male rats): 160 ± 20.2 ng·h/mL
MRT last ([3]; male rats): 2.37 ± 0.14 h
Vz/F ([3]; female rats): 82.5 ± 70.3 L/kg
Vz/F ([3]; male rats): 10.9 ± 1.56 L/kg
Exposure, fold higher in male rats than in female rats ([3]; i.v. dose 0.4 mg/kg): 2.4 fold
